From patent US20150343016A1, “CHEMICAL ENTITIES AND THERAPEUTIC USES THEREOF” (The Regents of the University of Colorado, a body corporate, priority 2010, published 2015)

Experiments:
[1] = system: Drosophila Chk1 or p53 mutant larvae; test: Drosophila screen for agents that increase the sensitivity of mutant larvae to radiation (NCI Diversity Set I and Natural Products Set); type: in vivo; conditions: irradiated Drosophila Chk1 or p53 mutant larvae
Excerpt: The Diversity Set I from the NCI-DTP, which is comprised of 1990 molecules chosen for chemical structural diversity and not for biological activity was screened using the Drosophila screen (U.S. Pat. No. 7,695,899).
Table 1. […] A total of 2225 molecules in Diversity Set I (n=1990) and Natural Products Set (n=235) libraries from the NCI-DTP were screened for agents that increased the sensitivity of Drosophila Chk1 or p53 mutant larvae to radiation. […] MT=microtubule; DS=double strand; topo=topoisomerase; NT=nucleotide
The Natural Product Set, also from the NCI-DTP, which contains 235 small molecules derived from natural sources was selected next. These molecules were identified initially in extracts from plants, microbes and marine organisms, but are now synthesized to sufficient purity for distribution by the NCI as plated sets.
(§1) The screen was performed using irradiated mutant larvae. Hits from the screen were defined as those that reduced the survival of IRRADIATED larvae compared to the population of drugs being tested (approximately 80 molecules at a time) or compared to DMSO controls in the re-test. A hit could therefore act by enhancing the effect of radiation, or by simply killing larvae as a single agent, or both. To distinguish among these possibilities, hits from the screen were re-tested against larvae with and without irradiation.

[2] = system: Det562 cells; test: CellTiter-Glo Luminescent Cell Viability Assay, Bouvardin with Taxol, Det562; type: cell-based, human; conditions: Det562 versus FaDu
Method: “Combination Index” computation. Combination Indices were calculated using CalcuSyn software (Biosoft), which uses the method of Chou and Talalay. This method first computes drug-induced effect using the Hill Equation: where E is the measured effect; C is the drug concentration; Emax is the full range of drug effect, usually at or near 100%; IC50 is the drug concentration producing the median effect of 50%; and n is the curve shape parameter describing the steepness of the concentration-effect relationship. The Chou and Talalay method then linearizes the Hill Equation by logarithmic transformation as: where fu is the fraction of cells left unaffected after drug exposure, fa is the fraction of cells affected by the exposure, C is the drug concentration used, Cm is the concentration to achieve the median effect, and n is the curve shape parameter. Cm and n are equivalent to IC50 and n, respectively, in the Hill Equation. The values of n (obtained from the slope), nlog(Cm) (obtained from the absolute value of the intercept), and, therefore, Cm are obtained by plotting log(fu−1−1) versus log(C). […]
The growth inhibitory effects of Bouvardin with Taxol were evaluated using CellTiter-Glo® Luminescent Cell Viability Assay (Promega G7570). […] Luminescence of each well was measured using an automated plate reader.

[3] = system: wild type Drosophila larvae; test: Drosophila larval survival to adulthood (eclosion), drug with and without IR, wild type; type: in vivo; conditions: wild type Drosophila larvae
Method: as §1, with “To validate the identification of Bouvardin from the primary screen, the effect of this molecule on Drosophila larvae alone or in combination with radiation were assessed (FIG. 12). The” for “The”
(§2) In FIG. 12 survival after each treatment is expressed as the fraction of animals that emerged (“eclosed”) as viable adults. The averages have been normalized to the average fraction eclosed in no IR/drug control for the respective genotype. Error bars extend beyond fractional survival of 1.0 simply because of normalization. (A-C) Fraction eclosed for WT and grp and p53 mutants at 16 uM of Bouvardin, with and without IR. The data are averages of 3-8 biological replicates per sample. Dotted line on each graph denotes expected ‘fraction eclosed’ if drug and IR act additively. IR doses were 4000R for WT and grp and 3000R for p53 because of the higher radiation sensitivity of the latter. (D) Fraction eclosed for Minute mutants and yw controls after exposure to 0 (−IR) and 2000R (+IR) of X-rays. N ranged from 86-207 per genotype per treatment, in 3 biological replicates per sample. *=p<0.01; **=<0.001. 100R=1Gy. Error bar=1 standard deviation.
(§3) The activity of Bouvardin in Drosophila alone or in combination with ionizing radiation (IR) was assessed. Drug concentrations of 10-20 μM were used to approximate the conditions of the original screen. Third instar larvae were irradiated and cultured on medium containing drug. The survival of larvae was quantified 10 days later by measuring the rate of eclosion into adulthood. […] For example, IR alone reduces the eclosion of p53 mutants to 0.63±0.05 and 10 μM of drug reduces it to 0.82±0.15. The combination of Bouvardin and IR reduces eclosion to 0.49, nearly the exact number expected (0.63±0.05×0.82±0.15=0.51±0.10) if the two treatments produced an additive effect. The expected eclosion for additive effect of drug and radiation are denoted with a white dotted line in each graph.
(§4) Wild type flies were of the Sevelin stock. Mutants have been described before. p535A-1-4 results from targeted deletion of the gene, and is maintained and used as homogygotes. grpl (Chk1 mutants) results from a p-element insertion and is a genetic null. Homozygotes of the latter were identified by the lack of GFP marker on the balancer chromosome. Minute mutants were of the genotypes y[1]w[*]; P[w[+mC]=lacW]RpS131/CyO and P[lacW]RpL36G0471 w67c23/FM7a. Because Minute mutants were in yw or w background, y1w1 (Bloomington stock #1495) was used as ‘wild type’ control in these experiments.
Feeding stage 3rd instar larvae were irradiated as previously described (2). Briefly, 120 hr old larvae were rinsed to remove food and passed through sizing sieves to obtain animals of uniform size. Larvae were placed in a Petri dish and irradiated using a TORREX X-ray generator, set at 115 kV and 5 mA (producing 2.4 Rads/sec or 1.44 Gy/min) Irradiated larvae were then cultured on cornmeal-agar media (2) containing drug or DMSO carrier. […]

[4] = system: Det562 Head and Neck Squamous Cell Carcinoma cells; test: Streptovitacin A alone and in combination with taxol on human cancer cells; type: cell-based; conditions: at a wide range of doses
Method: FIG. 11 depicts that streptovitacin A synergizes with taxol on Det562 Head and Neck Cancer cells. Concentrations for streptovitacin/taxol are shown. CI=1 indicates additive effects; CI>1 indicates antagonistic effects; CI<1 indicates synergy. The y-axis is “Combination Index” (CI).
The effect of streptovitacin A on human cancer cells alone and in combination with taxol was tested.
FIG. 11 depicts that at a wide range of doses the two drugs are synergistic (CI<1) in Det562 Head and Neck Squamous Cell Carcinoma cells.

[5] = system: H157 lung cancer cells; test: CellTiter-Glo Luminescent Cell Viability Assay, Streptovitacin with ionizing radiation, H157; type: cell-based, human; conditions: drug added 24 hr before irradiation
Method: FIG. 15 depicts CI values for Streptovitacin A and radiation on H157 lung cancer cells.
For FIG. 15 CellTiter-Glo® Luminescent Cell Viability Assay (Promega G7570) were used to determine the effect of Streptovitacin (concentrations in uM) in combination with ionizing radiation (in Gy, X-axis). The drug was added 24 hr before irradiation. (A) Faction affected (Fa) determined by the following formula 1−(x/y) where x is the experimental sample and y is the no Bouvardin/no drug control) (B) Corresponding CI values. Cells were irradiated in a Faxitron X-ray cabinet x-ray system (Lincolnshire, Ill.) set at 115 kV and 5 mA (producing 5.33 Rads/sec or 3.2 Gy/min) Note that this X-ray machine, produces a higher dose rate (lower exposure time) than the X-ray machine used on H157 cells in FIG. 18. Even with the same settings, higher IR doses are needed to achieve the same Fa. More important, combinatorial effects with drugs are similar if not identical on the two machines.

[6] = system: p53 mutant Drosophila larvae; test: Drosophila larval survival to adulthood (eclosion), drug with and without IR, p53 mutants; type: in vivo; conditions: drug alone (without radiation), wide range of doses
Method: as §1, with “To validate the identification of Bouvardin from the primary screen, the effect of this molecule on Drosophila larvae alone or in combination with radiation were assessed (FIG. 12). The” for “The”
as §2, §3, §4
Feeding stage 3rd instar larvae were irradiated as previously described (2). Briefly, 120 hr old larvae were rinsed to remove food and passed through sizing sieves to obtain animals of uniform size. Larvae were placed in a Petri dish and irradiated using a TORREX X-ray generator, set at 115 kV and 5 mA (producing 2.4 Rads/sec or 1.44 Gy/min) Irradiated larvae were then cultured on cornmeal-agar media (2) containing drug or DMSO carrier. In all experiments using human cells, cells in 96-well plates were irradiated with a RS2000 Biological Irradiator (Rad Source Technologies, Inc.) delivering 1 Gy/min.

[7] = system: cells from human squamous cell carcinoma, melanoma, non-small cell lung carcinoma, malignant gliomas and small cell lung cancer; conditions: Topotecan and its analogs; preclinical models; cited from earlier work
[8] = system: xenografts of Rhabdomyosarcoma; conditions: cited from earlier work

With Bleomycin the “Reproducible hit that increased the sensitivity of larvae to radiation; screen in which identified” value [1] was “Bleomycin (2)”.

For `CC[C@@]1(O)C(=O)OCc2c1cc1n(c2=O)Cc2cc3ccccc3nc2-1` [20-S Camptothecin], the “Reproducible hit that increased the sensitivity of larvae to radiation; screen in which identified” value [1] was “Camptothecin (1)”.

With `CC(=O)O[C@H]1C(=O)[C@@]2(C)[C@H]([C@H](OC(=O)c3ccccc3)[C@]3(O)C[C@H](OC(=O)[C@H](O)[C@@H](NC(=O)c4ccccc4)c4ccccc4)C(C)=C1C3(C)C)[C@]1(OC(C)=O)CO[C@@H]1C[C@@H]2O` [Taxol, paclitaxel, reference compound] the “sensitivity of cells to Taxol alone” value [2] was “more sensitive to Taxol alone than FaDu cells”.

With `C[C@H]1CC[C@@H](C(C)(C)O)CC2=C1CC[C@@H]2C` [Guaiol] the “Reproducible hit that increased the sensitivity of larvae to radiation; screen in which identified” value [1] was “Guaiol (2)”.

For `CC[C@H](C)[C@H]1NC(=O)[C@@H](NC(=O)[C@@H](CC(C)C)N(C)C(=O)[C@@H]2CCCN2C(=O)C(C)O)[C@@H](C)OC(=O)[C@H](Cc2ccc(OC)cc2)N(C)C(=O)[C@@H]2CCCN2C(=O)[C@H](CC(C)C)NC(=O)[C@@H](C)C(=O)[C@H](C(C)C)OC(=O)C[C@@H]1O` (stereo partly shown) [Didemnin B], the “Reproducible hit that increased the sensitivity of larvae to radiation; screen in which identified” value [1] was “Didemnin B (2)”.

With `C[C@H]1C[C@@](C)(O)C[C@@H]([C@H](O)CC2CC(=O)NC(=O)C2)C1=O` [Streptovitacin A, streptovitacin A] the “manner in which drug and ionizing radiation act together to kill larvae” value [3] was “act synergistically”, the “observed average for the combination versus expected additive value” ([3]; 10 μM drug + IR) was “significantly lower than the expected additive value” and the “Combination Index (CI), streptovitacin A with taxol” value [4] was < 1. The “interaction of drug with radiation” value [5] was “synergize at most combinations tested”, the “fraction of p53 mutant larvae that survive to adulthood versus wild type larvae” value [6] was “lower than the fraction of wild type larvae that survive to adulthood” and the “fraction of p53 mutant larvae that survive to adulthood versus wild type larvae” value ([6]; listed as streptovitacin A) was “kills p53 mutant larvae selectively over wild type larvae”.

In the case of `CC[C@@]1(O)C(=O)OCc2c1cc1n(c2=O)Cc2cc3c(CN(C)C)c(O)ccc3nc2-1` [Topotecan], the interaction with radiation [7] is given as “synergize with radiation” and the interaction with radiation [8] is given as “Synergy between Topotecan and radiation has been confirmed”.
